Experiment [1] has as its system LNCaP cells. Kind of experiment: Cell growth inhibition, 4-day proliferation assay, LNCaP. Particulars: Homo sapiens, 96 h, prostate cancer cell line, 4 days treatment. In kind it is cell-based. How it is done: (§1) The effect of representative Compounds of the Disclosure on cell viability was determined in a 4-day proliferation assay. Cells were maintained in the appropriate culture medium with 10% FBS at 37° C. and an atmosphere of 5% CO2. All the cell lines were used within three months of thawing fresh vials.
(§2) Cells were seeded in 96-well flat bottom (Corning COSTAR, Corning, NY, cat#3595) or white opaque cell culture plates (BD Falcon, cat#353296) at a density of 3,000-10,000 cells/well in 75 μl of culture medium. Compounds were serially diluted in the appropriate medium, and 75 μl of the diluted compounds were added to the appropriate wells of the cell plate. After the addition of compounds, the cells were incubated at 37° C. in an atmosphere of 5% CO2 for 4 days. Cell viability was determined using the CellTiter-Glo® Luminescent Cell Viability Assay Kit (Promega, Madison, Wis.) for RS4-11 and MV4-11 cells and WST (2-(2-methoxy-4-nitrophenyl)-3-(4-nitrophenyl)-5-(2,4-disulfophenyl)-2H-tetrazolium, monosodium salt) Cell Counting-8 Kit (Dojindo Molecular Technologies, Inc., Rockville, Md.) for MDA-MB-231 cells according to the manufacturers' instructions.
(§3) Cell growth inhibition of representative Compounds of the Disclosure in representative breast cancer (MDA-MB-231), acute leukemia (MV4-11), and prostate cancer cell lines (LNCaP), as determined by a WST assay, are presented in Table 3. Cells were treated with each inhibitor for 4 days.

For experiment [2], the system named is MV4-11 cells. As to the kind of experiment: Cell growth inhibition, 4-day proliferation assay, MV4-11. The conditions noted are these: Homo sapiens, MV4-11, 96 h, acute leukemia cell line, 4 days treatment. In kind it is cell-based. Here is the method: as §1, §2
For CellTiter-Glo assay (RS4-11 and MV4-11 cells), 100 μl of CellTiter-Glo® Reagent was added to each well, and then the plates were incubated at room temperature for 10-20 minutes. The luminescent signal was measured using a Tecan Infinite M1000 multimode microplate reader (Tecan, Morrisville, N.C.). The readings were normalized to the DMSO-treated cells and the IC50 was calculated by nonlinear regression (four parameters sigmoid fitted with variable slope, least squares fit, and no constraint) analysis using the GraphPad Prism 5 software.
as §3

The subject of experiment [3] is MDA-MB-231 cells. As to the kind of experiment: Cell growth inhibition, 4-day proliferation assay (WST), MDA-MB-231. It counts as cell-based. The conditions noted are these: Homo sapiens, MDA-MB-231, 96 h, breast cancer cell line, 4 days treatment. Here is the method:
as §1, §2
For WST assay (MDA-MB-231 cells), WST-8 reagent was added to each well at a final concentration of 10% (v/v), and then the plates were incubated at 37° C. for 1-2 hours for color development. The absorbance was measured at 450 nm using a SPECTRAmax PLUS plate reader (Molecular Devices, Sunnyvale, Calif.). The readings were normalized to the DMSO-treated cells and the half maximal inhibitory concentration (IC50) was calculated by nonlinear regression (four parameters sigmoid fitted with variable slope, least squares fit, and no constraint) analysis using the GraphPad Prism 5 software (GraphPad Software, La Jolla, Calif.).
as §3

For experiment [4], the target named is T1, recombinant BRD4 BD2 (Homo sapiens, UniProt O60885).
T1 construct: recombinant BRD4 BD1 and BRD4 BD2 proteins
Kind of experiment: Competitive fluorescence-polarization (FP) binding assay, BRD4 BD2. The conditions noted are these: FAM labeled probe 1.5 nM, protein 6 nM, pH 6.5. How it is done:
(§4) Fluorescence Polarization (FP) competitive binding studies were carried out using a FAM labeled fluorescent probe (ZBA248 or BRD-1F) to determine binding affinities of representative Compounds of the Disclosure for recombinant BRD4 BD1 and BRD4 BD2 proteins. For example, equilibrium dissociation constants (Kd) values of ZBA248 to these six proteins were determined from protein saturation experiments by monitoring the total fluorescence polarization of mixtures composed with the fluorescent probe at a fixed concentration and proteins with increasing concentrations up to full saturation. Serial dilutions of testing protein were mixed with ZBA248 to a final volume of 200 μl in the assay buffer. In order to achieve large dynamic rages, particularly for BD1 bromodomains, 100 mM phosphate buffer (pH=6.5, 0.01% Triton X-100 (Sigma, 282103) being added right before assays) was used as the assay buffer. Final ZBA248 concentration was 1.5 nM for all proteins. Plates were incubated at room temperature for 30 minutes with gentle shaking to assure equilibrium. FP values in millipolarization units (mP) were measured using the Infinite M-1000 plate reader (Tecan U.S., Research Triangle Park, N.C.) in Microfluor 1 96-well, black, round-bottom plates (Thermo Scientific, Waltham, Mass.) at an excitation wavelength of 485 nm and an emission wavelength of 530 nm. Kd values of ZBA248 were calculated by fitting the sigmoidal dose-dependent FP increases as a function of protein concentrations using Graphpad Prism 6.0 software (Graphpad Software, San Diego, Calif.).
(§5) The IC50 and Ki values of representative Compounds of the Disclosure were determined in a competitive binding experiment as described above. Mixtures of 10 μl of the tested compounds in assay buffer with 40% Ethylene Glycol and 190 μl of preincubated protein/probe complex solution in the assay buffer (100 mM potassium phosphate, pH 6.5, 0.01% Triton X-100) were added into assay plates which were incubated at room temperature for 30 minutes with gentle shaking. Final concentrations of proteins were 10 and 6 nM in assays for BD1 and BD2 of BRD4, respectively. Final probe concentration is 1.5 nM in all assays. Negative controls containing protein/probe complex only (equivalent to 0% inhibition), and positive controls containing only free probes (equivalent to 100% inhibition), were included in each assay plate. FP values were measured as described above. IC50 values were determined by nonlinear regression fitting of the competition curves. Instead of being calculated from IC50 values as described before, Ki values of competitive inhibitors were obtained directly by nonlinear regression fitting as well, based upon the Kd values of the probe to different proteins, and concentrations of the proteins and probes in the competitive assays (Wang, FEBS Lett. 360; 111 (1995); Zhang et al., Analytical Biochemistry, 331; 138 (2004)).
(§6) Binding affinities of representative Compounds of the Disclosure to BRD4 BD1 and BRD4 BD2 proteins in competitive, fluorescence-polarization assays are presented in Table 2.

Experiment [5] concerns the target T2, recombinant BRD4 BD1 (Homo sapiens, UniProt O60885).
T2 construct: recombinant BRD4 BD1 and BRD4 BD2 proteins
Kind of experiment: Competitive fluorescence-polarization (FP) binding assay, BRD4 BD1. The conditions noted are these: FAM labeled probe 1.5 nM, protein 10 nM, pH 6.5. How it is done: as §4, §5, §6

The results in this text go back to patent publication US10307407B2, “9H-pyrimido [4,5-B] indoles as BET bromodomain inhibitors” (THE REGENTS OF THE UNIVERSITY OF MICHIGAN, priority 2015, dated 2019).

A word on the IC50: it is the point on the concentration scale where inhibition reaches its midpoint.

Turning to `CCn1nc(C2CC2)cc1Nc1nc(COC)nc2[nH]c3cc(-c4c(C)noc4C)c(OC)cc3c12` [Cpd. No. 5, N-(3-cyclopropyl-1-ethyl-1H-pyrazol-5-yl)-7-(3,5-dimethylisoxazol-4-yl)-6-methoxy-2-(methoxymethyl)-9H-pyrimido[4,5-b]indol-4-amine], the IC50 in experiment [1] turned out to be 3 nM; in experiment [2], 3 nM; in experiment [3] it was 13 nM; in experiment [4], 2.4 nM; in experiment [5] it was 5.5 nM.

In the case of `COCc1nc(Nc2cc(C3CC3)nn2C(C)C)c2c(n1)[nH]c1cc(-c3c(C)noc3C)c(OC)cc12` [Cpd. No. 7, N-(3-cyclopropyl-1-isopropyl-1H-pyrazol-5-yl)-7-(3,5-dimethylisoxazol-4-yl)-6-methoxy-2-(methoxymethyl)-9H-pyrimido[4,5-b]indol-4-amine], the IC50 in experiment [2] amounted to 3 nM; in experiment [3], 6 nM; in experiment [4] it was 2.1 nM; in experiment [5], 3.9 nM.
